Measurements: patent US10493060B2, “Spirocyclic compounds” (ZENO ROYALTIES & MILESTONES, LLC, priority 2015, dated 2019)

What was measured:
[1] = target: Activated ERK2 (Homo sapiens (Human), UniProt P28482); experiment: Active ERK2 kinase assay (Mobility Shift Assay); format: biochemical
Method: (§1) Activated ERK1 and ERK2 activity was determined in a Mobility Shift Assay (MSA) format as follows: Compound and kinase solution were prepared with assay buffer (20 mM HEPES, 0.01% Triton X-100, 2 mM DTT, pH7.5) and mixed and incubated in for 30 mins at rt. ERK1 & ERK2 were then activated by the addition of Fl-Substrate, ATP and metal solution and incubated for 1 h at rt. After 1 h, the reaction was terminated by the addition of […] of Termination Buffer (QuickScout Screening Assist MSA; Carna Biosciences) to the well. The reaction mixture was applied to LabChip™ system (PerkinElmer), and the product and substrate peptide peaks were separated, analyzed and quantitated. The kinase reaction is evaluated by the product ratio calculated from peak heights of product (P) and substrate (S) peptides (P/(P+S)).

[2] = system: A375 (melanoma) cells; experiment: Proliferation assay (CellTiter-Glo), A375; format: cell-based; settings: Homo sapiens, A-375, 72 h, 3 days
Method: (§2) A375 (melanoma), Colo-205 (colon cancer), Miapaca (pancreatic), HPAFII (pancreatic), sNF02.0 (neurofibromatosis type 1), sNF96.2 (neurofibromatosis type 1) and 8505 (Thyroid) cells were grown and maintained in RPMI-1640 medium containing 100 U/mL penicillin-streptomycin and 10% fetal bovine serum. Cells were in growth medium in 96-well opaque-walled clear bottom plates and incubated the in the CO2 incubator overnight before treatment. Cells were treated with compounds diluted in DMSO and a 10 point 3-fold serial dilutions were done. Plates were placed in 37° C., 5% CO2 for to incubate for 3 days. Before they were developed by adding 100 μL of CellTiter-Glo reagent (Promega) to the assay plate, plates were shaken briefly for 2 mins and allowed to incubate at rt for 10 mins. The bottom of the plates was pasted with white back seal and luminescence was recorded with Flexstation3 with setting of luminescence, integration time 500 ms.

[3] = system: Colo-205 (colon cancer) cells; experiment: Proliferation assay (CellTiter-Glo), Colo-205; format: cell-based; settings: Homo sapiens, COLO 205, 72 h, Colo205 cells, 3 days
Method: as §2

[4] = target: Activated ERK1 (Homo sapiens (Human), UniProt P27361); experiment: Active ERK1 kinase assay (Mobility Shift Assay); format: biochemical
Activated ERK1, sequence (P27361 whole entry): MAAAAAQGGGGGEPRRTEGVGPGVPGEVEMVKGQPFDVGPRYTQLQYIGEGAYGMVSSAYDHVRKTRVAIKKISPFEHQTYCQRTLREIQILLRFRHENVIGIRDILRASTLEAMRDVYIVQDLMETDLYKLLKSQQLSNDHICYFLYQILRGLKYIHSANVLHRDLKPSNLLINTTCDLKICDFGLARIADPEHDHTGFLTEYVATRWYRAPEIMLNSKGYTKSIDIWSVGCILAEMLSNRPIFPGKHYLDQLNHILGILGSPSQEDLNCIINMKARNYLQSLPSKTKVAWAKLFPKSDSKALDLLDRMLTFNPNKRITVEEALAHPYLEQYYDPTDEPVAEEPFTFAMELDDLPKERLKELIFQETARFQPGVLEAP
Method: as §1

[5] = system: HPAFII (pancreatic) cells; experiment: Proliferation assay (CellTiter-Glo), HPAFII; format: cell-based; settings: Homo sapiens, HPAF-II, 72 h, 3 days
Method: as §2

[6] = system: Mia Paca-2 (pancreatic) cells; experiment: Proliferation assay (CellTiter-Glo), Mia Paca-2; format: cell-based; settings: Homo sapiens, 72 h, Mia Paca-2 cells, 3 days
Method: as §2

[7] = system: sNF96.2 (neurofibromatosis type 1) cells; experiment: Proliferation assay (CellTiter-Glo), sNF96.2; format: cell-based; settings: 72 h, sNF96.2 cells, 3 days
Method: as §2

[8] = system: 8505C (Thyroid) cells; experiment: Proliferation assay (CellTiter-Glo), 8505C; format: cell-based; settings: Homo sapiens, 72 h, 8505C cells, 3 days
Method: as §2

[9] = system: sNF02.2 (neurofibromatosis type 1) cells; experiment: Proliferation assay (CellTiter-Glo), sNF02.2; format: cell-based; settings: 72 h, sNF02.2 cells, 3 days
Method: as §2

Activated ERK2, sequence (P28482 whole entry): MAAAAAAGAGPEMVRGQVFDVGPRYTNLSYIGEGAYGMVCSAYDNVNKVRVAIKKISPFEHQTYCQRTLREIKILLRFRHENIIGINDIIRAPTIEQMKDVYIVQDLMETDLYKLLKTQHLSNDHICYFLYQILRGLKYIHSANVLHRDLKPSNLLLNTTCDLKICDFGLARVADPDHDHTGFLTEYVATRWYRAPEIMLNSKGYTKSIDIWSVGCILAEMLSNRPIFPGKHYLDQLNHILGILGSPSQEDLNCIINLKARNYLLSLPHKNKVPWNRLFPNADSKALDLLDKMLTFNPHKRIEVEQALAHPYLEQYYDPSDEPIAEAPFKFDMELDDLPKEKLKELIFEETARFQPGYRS

For `Cn1cnc(-c2ccc(C3=CCN(C(=O)CN4CC[C@]5(CCN(c6ccc7[nH]nc(-c8ccnc(C(F)(F)F)c8)c7c6)C5=O)C4)CC3)cc2)n1` [Example 20, (S)-7-(2-(4-(4-(1-Methyl-1H-1,2,4-triazol-3-yl)phenyl)-3,6-dihydropyridin-1 (2H)-yl)-2-oxoethyl)-2-(3-(2-(trifluoromethyl)pyridin-4-yl)-1H-indazol-5-yl)-2,7-diazaspiro[4.4]nonan-1-one], the IC50 [1] was ≤ 50 nM, the IC50 [2] was ≤ 500 nM and the IC50 [3] was ≤ 500 nM. For the same compound, the IC50 [4] was ≤ 50 nM.
`CCNc1nnc(-c2ccc(C3=CCN(C(=O)CN4CC[C@]5(CCN(c6ccc7[nH]nc(-c8ccc(OC(C)C)nc8)c7c6)C5=O)C4)CC3)cc2)o1` [Example 18, (S)-7-(2-(4-(4-(5-(Ethylamino)-1,3,4-oxadiazol-2-yl)phenyl)-3,6-dihydropyridin-1(2H)-yl)-2-oxoethyl)-2-(3-(6-isopropoxypyridin-3-yl)-1H-indazol-5-yl)-2,7-diazaspiro[4.4]nonan-1-one] was tested, and the IC50 [1] was ≤ 50 nM, the IC50 [2] was ≤ 500 nM and the IC50 [3] was ≤ 500 nM. For the same compound, the IC50 [4] was ≤ 50 nM.
`Cn1cnc(-c2ccc(C3=CCN(C(=O)CN4CC[C@]5(CCN(c6ccc7[nH]nc(C8CCNC(C(F)(F)F)C8)c7c6)C5=O)C4)CC3)cc2)n1` (stereo partly drawn) [Example 12, (5S)-7-(2-(4-(4-(1-Methyl-1H-1,2,4-triazol-3-yl)phenyl)-3,6-dihydropyridin-1(2H)-yl)-2-oxoethyl)-2-(3-(2-(trifluoromethyl)piperidin-4-yl)-1H-indazol-5-yl)-2,7-diazaspiro[4.4]nonan-1-one] was tested, and the IC50 [1] was ≤ 50 nM, the IC50 [2] was 500 to 1000 nM and the IC50 [3] was ≤ 500 nM. For the same compound, the IC50 [4] was ≤ 50 nM.
For `Cc1nnc(-c2ccc(C3=CCN(C(=O)CN4CC[C@]5(CCN(c6ccc7[nH]nc(-c8ccc(OC(C)C)nc8)c7c6)C5=O)C4)CC3)cc2)o1` [Example 17, (S)-2-(3-(6-Isopropoxypyridin-3-yl)-1H-indazol-5-yl)-7-(2-(4-(4-(5-methyl-1,3,4-oxadiazol-2-yl)phenyl)-3,6-dihydropyridin-1(2H)-yl)-2-oxoethyl)-2,7-diazaspiro[4.4]nonan-1-one], the IC50 [1] was ≤ 50 nM, the IC50 [2] was ≤ 500 nM and the IC50 [3] was ≤ 500 nM. The IC50 [4] was ≤ 50 nM.
In the case of `CC(C)Oc1ccc(-c2n[nH]c3ccc(N4CC[C@]5(CCN(CC(=O)N6CC=C(c7ccc(-c8ncc(F)cn8)cc7)CC6)C5)C4=O)cc23)cn1` [Example 23, (S)-7-(2-(4-(4-(5-Fluoropyrimidin-2-yl)phenyl)-3,6-dihydropyridin-1(2H)-yl)-2-oxoethyl)-2-(3-(6-isopropoxypyridin-3-yl)-1H-indazol-5-yl)-2,7-diazaspiro[4.4]nonan-1-one], the IC50 [1] is reported as ≤ 50 nM, the IC50 [2] is reported as 500 to 1000 nM and the IC50 [4] is reported as ≤ 50 nM.
`Cn1cnc(-c2ccc(C3=CCN(C(=O)CN4CC[C@]5(CCN(c6ccc7[nH]nc(-c8ccncc8F)c7c6)C5=O)C4)CC3)cc2)n1` [Example 31, (S)-2-(3-(3-Fluoropyridin-4-yl)-1H-indazol-5-yl)-7-(2-(4-(4-(1-methyl-1H-1,2,4-triazol-3-yl)phenyl)-3,6-dihydropyridin-1(2H)-yl)-2-oxoethyl)-2,7-diazaspiro[4.4]nonan-1-one] was tested, and the IC50 [1] was ≤ 50 nM, the IC50 [2] was ≤ 500 nM and the IC50 [4] was ≤ 50 nM.
`Cn1nccc1Nc1nccc(-c2ccn([C@H](CO)c3ccc(Cl)c(F)c3)c(=O)c2)n1` [GDC-0994] was tested, and the IC50 [2] was 500 to 1000 nM and the IC50 [3] was ≤ 500 nM.
In the case of `Cn1cnc(-c2ccc(C3=CCN(C(=O)CN4CC[C@]5(CCN(c6ccc7[nH]nc(-c8ccc(F)cc8)c7c6)C5=O)C4)CC3)cc2)n1` [Example 29, (S)-2-(3-(4-Fluorophenyl)-1H-indazol-5-yl)-7-(2-(4-(4-(1-methyl-1H-1,2,4-triazol-3-yl)phenyl)-3,6-dihydropyridin-1(2H)-yl)-2-oxoethyl)-2,7-diazaspiro[4.4]nonan-1-one], the IC50 [1] is reported as ≤ 50 nM, the IC50 [5] is reported as ≤ 500 nM and the IC50 [6] is reported as ≤ 500 nM. The IC50 [7] was ≤ 500 nM, the IC50 [8] was 500 to 1000 nM and the IC50 [9] was ≤ 500 nM. The IC50 [2] was ≤ 500 nM and the IC50 [4] was ≤ 50 nM.
`CC(C)Oc1ccc(-c2n[nH]c3ccc(N4CC[C@]5(CCN(CC(=O)N6CCC(F)(c7ccc(-c8ncn(C)n8)cc7)CC6)C5)C4=O)cc23)cn1` [Example 27] was tested, and the IC50 [1] was ≥ 250 nM, the IC50 [2] was ≥ 1000 nM and the IC50 [4] was ≥ 250 nM.
For `Cc1ccc(-c2n[nH]c3ccc(N4CCC5(CCN(CC(=O)N6CC=C(c7ccc(-c8ncn(C)n8)cc7)CC6)C5)C4=O)cc23)cn1` (centres unmarked) [Example 7, 7-(2-(4-(4-(1-Methyl-1H-1,2,4-triazol-3-yl)phenyl)-3,6-dihydropyridin-1(2H)-yl)-2-oxoethyl)-2-(3-(6-methylpyridin-3-yl)-1H-indazol-5-yl)-2,7-diazaspiro[4.4]nonan-1-one], the IC50 [1] was ≤ 50 nM, the IC50 [2] was ≤ 500 nM and the IC50 [3] was ≤ 500 nM. The IC50 [4] was ≤ 50 nM.
With `CC(C)Oc1ccc(-c2n[nH]c3ccc(N4CC[C@]5(CCN(CC(=O)N6CC=C(c7ccc(-c8ncccn8)cn7)CC6)C5)C4=O)cc23)cn1` [Example 25, (S)-2-(3-(6-Isopropoxypyridin-3-yl)-1H-indazol-5-yl)-7-(2-oxo-2-(5-(pyrimidin-2-yl)-3′,6′-dihydro-[2,4′-bipyridin]-1′(2′H)-yl)ethyl)-2,7-diazaspiro[4.4]nonan-1-one] the IC50 [1] was 50 to 250 nM, the IC50 [2] was ≥ 1000 nM and the IC50 [4] was ≥ 250 nM.
In the case of `CC(C)Oc1cc(-c2n[nH]c3ccc(N4CC[C@]5(CCN(CC(=O)N6CC=C(c7ccc(-c8ncn(C)n8)cc7)CC6)C5)C4=O)cc23)ccn1` [Example 30, (S)-2-(3-(2-Isopropoxypyridin-4-yl)-1H-indazol-5-yl)-7-(2-(4-(4-(1-methyl-1H-1,2,4-triazol-3-yl)phenyl)-3,6-dihydropyridin-1(2H)-yl)-2-oxoethyl)-2,7-diazaspiro[4.4]nonan-1-one], the IC50 [1] is reported as ≤ 50 nM, the IC50 [2] is reported as ≤ 500 nM and the IC50 [4] is reported as ≤ 50 nM.
In the case of `CC(C)Oc1ccc(-c2n[nH]c3ccc(N4CC[C@]5(CCN(CC(=O)N6CC=C(c7ccc(-c8cn(C)nn8)cc7)CC6)C5)C4=O)cc23)cn1` [Example 15, (S)-2-(3-(6-isopropoxypyridin-3-yl)-1H-indazol-5-yl)-7-(2-(4-(4-(1-methyl-1H-1,2,3-triazol-4-yl)phenyl)-3,6-dihydropyridin-1 (2H)-yl)-2-oxoethyl)-2,7-diazaspiro[4.4]nonan-1-one], the IC50 [1] is reported as ≤ 50 nM, the IC50 [2] is reported as ≤ 500 nM and the IC50 [3] is reported as ≤ 500 nM. For the same compound, the IC50 [4] was ≤ 50 nM.
For `CC(C)Oc1ccc(-c2n[nH]c3ccc(N4CC[C@]5(CCN(CC(=O)N6CC=C(c7ccc(-c8ncccn8)cc7)CC6)C5)C4=O)cc23)cn1` [Example 22, (S)-2-(3-(6-Isopropoxypyridin-3-yl)-1H-indazol-5-yl)-7-(2-oxo-2-(4-(4-(pyrimidin-2-yl)phenyl)-3,6-dihydropyridin-1(2H)-yl)ethyl)-2,7-diazaspiro[4.4]nonan-1-one], the IC50 [1] was ≤ 50 nM, the IC50 [2] was ≤ 500 nM and the IC50 [4] was ≤ 50 nM.
`Cn1cnc(-c2ccc(C3=CCN(C(=O)CN4CC[C@]5(CCN(c6ccc7[nH]nc(-c8ccnc(C9(C(F)(F)F)CC9)c8)c7c6)C5=O)C4)CC3)cc2)n1` [Example 38, (S)-7-(2-(4-(4-(1-Methyl-1H-1,2,4-triazol-3-yl)phenyl)-3,6-dihydropyridin-1 (2H)-yl)-2-oxoethyl)-2-(3-(2-(1-(trifluoromethyl)cyclopropyl)pyridin-4-yl)-1H-indazol-5-yl)-2,7-diazaspiro[4.4]nonan-1-one] was tested, and the IC50 [1] was ≤ 50 nM, the IC50 [5] was ≤ 500 nM and the IC50 [6] was ≤ 500 nM. The IC50 [7] was 500 to 1000 nM, the IC50 [8] was ≥ 1000 nM and the IC50 [9] was ≥ 1000 nM. For the same compound, the IC50 [2] was ≤ 500 nM.
